Assay results reported in publication PMC6724193 (ACS infectious diseases, 2019).
In brackets after ≈: the same amount, converted by molar mass. Several values for one entry are separate records, joined by “and”; a condition that tells them apart may be missing. Equal entries are not always repeated. Entries after “also recorded” stand apart in the source; their conditions may differ. Where two headings read alike, the source gives them in different places. Marks after values point to notes of the source that are not given here.

What was measured:
mycobacteria = conditions: cited from earlier work
[1] = test system: M. tuberculosis infection; conditions: cited from earlier work
[2] = test system: biotin pathway intermediates (vitamers); conditions: acidomycin added to culture media; cited from earlier work
[3] = test system: gram-positive and gram-negative bacteria or fungi; conditions: cited from earlier work
[4] = molecular target: MtBPL (M. tuberculosis biotin protein ligase) (Mycobacterium tuberculosis, UniProt I6YFP0); format: binding
[5] = test system: non-tuberculosis mycobacteria, gram-positive and gram-negative pathogens; assay: organism not typed; format: cell-based
M. tuberculosis H37Rv [6] = assay: MIC against M. tuberculosis H37Rv; format: cell-based, Mycobacterium tuberculosis
[7] = molecular target: E. coli biotin synthase (EcBioB) (Escherichia coli, UniProt P12996); assay: biochemical; format: biochemical; conditions: for IC50: 5 μM EcBioB dimer, 10 μM DTB, 100 μM SAM, single-turnover
[8] = for t1/2 (i.v.): 5 mg/kg i.v., terminal elimination half-life; for F (oral bioavailability) / AUC0–∞ (i.v.) / CL (i.v.) / Vd (i.v.) / AUC0–∞ (p.o.): mouse, in vivo; for AUC0–∞ (i.v.) / CL (i.v.) / Vd (i.v.): iv, 5 mg/kg; for AUC0–∞ (p.o.): po, 25 mg/kg
E. coli K-12 = assay: Intracellular accumulation of antibiotics; format: cell-based
HepG2 = conditions: human, 72 h
[9] = test system: M. tuberculosis strain carrying two copies of the bioB gene; assay: MIC against BioB merodiploid strain; format: cell-based
M. africanum = assay: microbe, parasite or virus in culture; format: cell-based
Vero = conditions: African green monkey, 72 h
M. avium complex (3) = assay: MIC against M. avium complex; format: cell-based; conditions: Mycobacterium avium
[10] = test system: M. tuberculosis (8) drug-sensitive clinical isolates; assay: microbe, parasite or virus in culture; format: cell-based; conditions: Mycobacterium tuberculosis
E. coli ATCC 25922 = assay: MIC, broth microdilution, E. coli; conditions: Escherichia coli, ATCC25922
A. baumannii (AB5075) = assay: MIC, broth microdilution, A. baumannii; conditions: Acinetobacter baumannii
M. abscessus (4) = assay: MIC against M. abscessus; format: cell-based; conditions: Mycobacteroides abscessus
E. faecalis (V583) = assay: MIC, broth microdilution, E. faecalis; conditions: Enterococcus faecalis
M. tuberculosis Erdman = assay: microbe, parasite or virus in culture; format: cell-based; conditions: Mycobacterium tuberculosis
S. aureus (USA300) = assay: MIC, broth microdilution, S. aureus; conditions: Staphylococcus aureus
M. tuberculosis HN878 = assay: microbe, parasite or virus in culture; format: cell-based; conditions: Mycobacterium tuberculosis
M. smegmatis mc^2155 = assay: MIC90 against M. smegmatis; format: cell-based; conditions: ≥90% growth inhibition
M. bovis BCG = assay: microbe, parasite or virus in culture; format: cell-based
P. aeruginosa (PA14) = assay: MIC, broth microdilution, P. aeruginosa; conditions: Pseudomonas aeruginosa
M. tuberculosis (2) XDR = assay: microbe, parasite or virus in culture; format: cell-based; conditions: Mycobacterium tuberculosis
M. tuberculosis (6) MDR+ = assay: microbe, parasite or virus in culture; format: cell-based; conditions: Mycobacterium tuberculosis
M. tuberculosis (7) MDR = assay: microbe, parasite or virus in culture; format: cell-based; conditions: Mycobacterium tuberculosis
M. tuberculosis H37Rv [11] = format: cell-based
[12] = test system: biotinylated proteome of M. tuberculosis; format: cell-based, M. tuberculosis H37Ra

E. coli biotin synthase (EcBioB), sequence (P12996 whole entry): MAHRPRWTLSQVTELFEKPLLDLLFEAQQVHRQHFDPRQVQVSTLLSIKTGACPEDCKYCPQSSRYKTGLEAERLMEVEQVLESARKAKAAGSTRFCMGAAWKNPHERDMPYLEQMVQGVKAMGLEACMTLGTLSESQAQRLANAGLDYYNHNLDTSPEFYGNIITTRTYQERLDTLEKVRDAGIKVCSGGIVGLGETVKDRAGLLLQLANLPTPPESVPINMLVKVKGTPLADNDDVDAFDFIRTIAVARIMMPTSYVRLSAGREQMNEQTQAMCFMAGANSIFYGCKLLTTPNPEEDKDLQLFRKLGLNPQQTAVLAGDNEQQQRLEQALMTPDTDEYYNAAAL
MtBPL (M. tuberculosis biotin protein ligase), sequence (I6YFP0 whole entry, looked up): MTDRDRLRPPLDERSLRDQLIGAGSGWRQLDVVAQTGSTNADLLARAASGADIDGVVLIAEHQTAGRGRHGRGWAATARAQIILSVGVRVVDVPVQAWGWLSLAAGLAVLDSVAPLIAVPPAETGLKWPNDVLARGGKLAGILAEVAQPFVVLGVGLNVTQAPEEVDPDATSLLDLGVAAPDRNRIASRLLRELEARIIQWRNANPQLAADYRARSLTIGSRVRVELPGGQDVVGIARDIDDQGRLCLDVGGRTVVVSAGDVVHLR

CSc1ccc2c(c1)N(CCC1CCCCN1C)c1ccccc1S2 (stereo not shown) [Thioridazine]
Accumulation, +biotin (M. tuberculosis H37Ra): 5.2 ± 0.4 nmol/10^12 CFUs | Accumulation, −biotin (M. tuberculosis H37Ra): 18 ± 1 nmol/10^12 CFUs | IC/EC Ratio (M. tuberculosis H37Ra): 0.7 and 0.72 ± 0.04 | Intracellular Concentration, −biotin (M. tuberculosis H37Ra): 36 ± 2 µM

O=C(O)CCCCCC1NC(=O)CS1 (stereo not shown) [acidomycin]
increase in inhibitory concentrations after growth in the presence of acidomycin (mycobacteria): two-fold | concentrations required to inhibit the growth of mycobacteria in vitro (mycobacteria; converted value): 1.2 to 46.0 µM | activity against an M. tuberculosis infection in vivo [1]: inactive | solubility (physchem): < 4 mM | increase of accumulation of biotin pathway intermediates (vitamers) [2]: two- to seventy-fold | concentration without growth inhibition [3]: > 1 mg/mL | concentration without growth inhibition ([3]; converted value): > 4.6 mM | binding to MtBPL [4]: does not bind to MtBPL | susceptibility of NTM strains [5]: intrinsically resistant | MIC ([5]; read-out: MICs): > 1000 µM | difference in whole cell activity, E. coli versus M. tuberculosis (M. tuberculosis H37Rv [6]): > 100 fold | Ki [7]: ~1000 nM | production of 5′-deoxyadenosine by BioB [7]: significantly enhanced | time-dependent inhibition [7]: did not exhibit time-dependent inhibition

O=C(O)CCCCC[C@H]1NC(=O)CS1 [(S)-(−)-acidomycin]
t1/2 (i.v.) [8]: 14.4 ± 0.1 min | F (oral bioavailability) [8]: 8 ± 1% | AUC0–∞ (i.v.) [8]: 2116 ± 115 ng·h/mL | CL (i.v.) [8]: 2363 ± 126 mL/kg/h | Vd (i.v.) [8]: 0.82 ± 0.05 L/kg | AUC0–∞ (p.o.) [8]: 890 ± 106 ng·h/mL | IC50 [7]: 13.3 ± 1.8 µM

CN(C)[C@@H]1C(O)=C(C(N)=O)C(=O)[C@@]2(O)C(O)=C3C(=O)c4c(O)cccc4[C@@](C)(O)[C@H]3C[C@@H]12 [Tetracycline, reference compound]
Accumulation, +biotin (M. tuberculosis H37Ra): 2220 ± 50 nmol/10^12 CFUs | Accumulation, −biotin (M. tuberculosis H37Ra): 2200 ± 200 nmol/10^12 CFUs | Accumulation, +biotin (E. coli K-12): 1600 ± 100 nmol/10^12 CFUs | Accumulation, −biotin (E. coli K-12): 3100 ± 120 nmol/10^12 CFUs

CO[C@H]1/C=C/O[C@@]2(C)Oc3c(C)c(O)c4c(O)c(c(/C=N/N5CCN(C)CC5)c(O)c4c3C2=O)NC(=O)/C(C)=C\C=C\[C@H](C)[C@H](O)[C@@H](C)[C@@H](O)[C@@H](C)[C@H](OC(C)=O)[C@@H]1C [Rifampicin, reference compound]
IC/EC Ratio (E. coli K-12): 2.1

O=C(O)CCCCCC1NC(=O)CS1 (racemic) [(±)-acidomycin, 6-(4-Oxothiazolidin-2-yl)hexanoic acid]
EC (greater than 50% inhibition of cell viability) (HepG2): >1000^e μM | change of MIC in BioB merodiploid versus H37Rv [9]: increase in the MIC | MIC (M. africanum): 0.20 µM (≈ 0.0435 µg/mL) | MIC (M. africanum; Mycobacterium tuberculosis): 0.2 µM (≈ 0.0435 µg/mL) | EC (greater than 50% inhibition of cell viability) (Vero): >1000^e μM | MIC (M. avium complex (3)): > 100 µM | Accumulation, +biotin (M. tuberculosis H37Ra): 1150 ± 40 nmol/10^12 CFUs | Accumulation, −biotin (M. tuberculosis H37Ra): 1300 ± 400 nmol/10^12 CFUs | Intracellular Concentration, −biotin (M. tuberculosis H37Ra): 2600 ± 800 µM | fold higher accumulation in M. tuberculosis than in E. coli (M. tuberculosis H37Ra): approximately 30 fold | impact of exogenous biotin on cellular accumulation in M. tuberculosis (M. tuberculosis H37Ra): little impact | MIC [10]: 0.096 to 6.2 µM (≈ 0.0209 to 1.35 µg/mL) | MIC90 (E. coli ATCC 25922): > 1000 µM | MIC90 (A. baumannii (AB5075)): > 1000 µM | MIC (M. abscessus (4)): > 100 µM | IC/EC Ratio (E. coli K-12): 1.6 and 1.6 ± 0.4 | Intracellular Concentration, −biotin (E. coli K-12): 80 µM | Accumulation, −biotin (E. coli K-12; E. coli, 50 μM extracellular): 80 ± 20 nmol/10^12 CFUs | Accumulation, +biotin (E. coli K-12; E. coli, 50 μM extracellular, 1 μM biotin): 61 ± 2 nmol/10^12 CFUs | Intracellular Concentration, −biotin (E. coli K-12; E. coli, cell volume 1.0 μm^3): 80 ± 20 µM | MIC90 (E. faecalis (V583)): > 1000 µM | MIC (M. tuberculosis Erdman): 1.56 µM (≈ 0.339 µg/mL) | MIC90 (S. aureus (USA300)): > 1000 µM | MIC (M. tuberculosis HN878): 0.6 µM (≈ 0.13 µg/mL) | MIC90 (M. smegmatis mc^2155): 10^d μM | MIC (M. bovis BCG): 1.30 µM (≈ 0.282 µg/mL) | MIC (M. bovis BCG; Mycobacterium tuberculosis variant bovis BCG, BCG): 1.3 µM (≈ 0.282 µg/mL) | MIC90 (P. aeruginosa (PA14)): > 1000 µM | activity toward representative gram-negative and gram-positive pathogens [5]: inactive | MIC (M. tuberculosis (2) XDR): 0.096 to 1.2 µM (≈ 0.0209 to 0.261 µg/mL) | MIC (M. tuberculosis (6) MDR+): 0.2 to 4.8 µM (≈ 0.0435 to 1.04 µg/mL) | MIC (M. tuberculosis H37Rv [6]): 1.56 µM (≈ 0.339 µg/mL) | effect on M. tuberculosis viability (M. tuberculosis H37Rv [6]): bacteriostatic | fold difference in MIC relative to (S)-(−)-acidomycin (M. tuberculosis H37Rv [6]): about 2.5 fold | MIC (M. tuberculosis H37Rv [6]; Mycobacterium tuberculosis, H37RV): 1.6 µM (≈ 0.348 µg/mL) | MIC (M. tuberculosis (7) MDR): 0.6 to 6.2 µM (≈ 0.13 to 1.35 µg/mL) | effect of KAPA supplementation on growth inhibition (M. tuberculosis H37Rv [11]): no effect | effect of biotin supplementation on growth inhibition (M. tuberculosis H37Rv [11]): completely rescued | shift of MIC by DTB supplementation (M. tuberculosis H37Rv [11]): approximately two-fold | Ki [7]: 2000 ± 1300 nM | modality of inhibition [7]: competitive inhibitor; also recorded: competitive inhibition

Nc1ncnc2c1ncn2[C@@H]1O[C@H](CNS(=O)(=O)NC(=O)CCCC[C@@H]2SC[C@@H]3NC(=O)N[C@@H]32)[C@@H](O)[C@H]1O [Bio-AMS, 5ʹ-[N-(D-biotinoyl)sulfamoyl]amino-5ʹ-deoxyadenosine]
impact on global protein biotinylation [12]: noticeable decrease in protein band intensity

O=C(O)CCCCC[C@@H]1NC(=O)CS1 [(R)-(+)-acidomycin]
t1/2 (i.v.) [8]: 19.2 ± 2.4 min | F (oral bioavailability) [8]: 16 ± 7% | AUC0–∞ (i.v.) [8]: 2055 ± 564 ng·h/mL | CL (i.v.) [8]: 2433 ± 482 mL/kg/h | Vd (i.v.) [8]: 1.12 ± 0.37 L/kg | AUC0–∞ (p.o.) [8]: 1591 ± 718 ng·h/mL | MIC (M. tuberculosis H37Rv [6]): 7.7 µM (≈ 1.67 µg/mL) | fold difference in MIC relative to (S)-(−)-acidomycin (M. tuberculosis H37Rv [6]): thirteen-fold less active | IC50 [7]: > 100 µM | inhibition of EcBioB ([7]; at 100 μM): less than 30%
